The text below walks through data of patent US20220412956A1, “METHODS FOR ASSESSING TOXICITY OF A COMPOUND” (The Chinese University of Hong Kong, priority 2021, published 2022).

In series [1] the test system is hiPSC-CMs. Description: Mitochondrial morphology, Mitotracker staining (elongated / punctate / perinuclear). Further details: perinuclear mitochondria: dose or concentration left out as unconfirmed. The note with it: for mitochondrial morphology (MTDR dye): FIG. 8B, treated CMs vs control; for proportion of cells with healthy elongated mitochondria: FIG. 8C; for proportion of cells with punctate, fragmented mitochondria / proportion of punctate mitochondria / proportion of elongated mitochondria: 3 days; for proportion of cells with punctate, fragmented mitochondria: control 21.0±5.9%; for proportion of cells with punctate mitochondria / elongated mitochondria: 3 days hypoxic treatment + 3 days recovery; for proportion of cells with punctate mitochondria: control 46.1±[…]; for elongated mitochondria: control 47.4±4.9%; for proportion of punctate mitochondria / proportion of elongated mitochondria: hypoxic; for proportion of punctate mitochondria: control 37.3±6.1%; for proportion of elongated mitochondria: control 45.1±7.8%.

In series [2] the target is human mitochondrial RNA polymerase (Homo sapiens, UniProt O00411). Conditions: purified enzyme; cited from earlier work.
The conditions of series [3]: cited from earlier work; for peak plasma concentration: healthy adult volunteers; for Cmax: healthy volunteers, read-out: Cmax / peak plasma concentration.
Series [4] relates to hiPSC-CMs.
A further series deals with hPSC-CMs. The note with it: cited from earlier work.
The conditions of series [5]: cited from earlier work.
The test system of series [6] is ND1, ND5, SDHA, COX6A2, ATP6, ACADVL mRNA. Description: qRT-PCR of genes important for mitochondrial function. The class given is cell-based, human. Conditions: 3 days, normoxic or hypoxic, normalised to B2M. The method, then:
Total RNA was extracted using Trizol Reagent according to the manufacturer's instructions (Thermo Fisher Scientific). Extracted RNA was reverse transcribed using PrimeScript RT Master Mix (Takara). Quantitative RT-PCR of target genes was performed with GoTaq® qPCR Master Mix (Promega) using an QuantStudio™ 12K Flex. Gene transcript abundance was normalised to B2M and then to that of the untreated sample to control for biological variations among the different sets of samples.
Of the ETC genes, ND1, ND5 and ATP6 are encoded by the mitochondrial genome, while COX6A2 and SDHA are encoded by the nuclear genome. […] Overall, the general repression of ETC gene transcripts was consistent with and might contribute to the reduced redox potential observed (FIG. 1A).

Series [7] relates to hiPSC-CMs. Description: Nuclear condensation / nuclear morphology / cell number, Hoescht staining. The series is classed as cell-based, human. The method, then: (§1) Cells were incubated with Mitotracker Deep Red FM dye (200 nM; Thermo Fisher Scientific) and Hoescht 33342 dye (5 μg/ml; Thermo Fisher Scientific) for 30 min at 37° C., after which they were fixed with 4% paraformaldehyde at room temperature for 15 min followed by 15 min wash with PBS and imaged with a Leica THUNDER Imager microscope or Nikon AIR HD25 confocal microscope.
Similarly, nuclei were scored as normal (relatively large nuclei with regular shape) or condensed (intensely stained nuclei with irregular shape) by a technician blinded to the identities of the samples.
Nuclear condensation is a sign of apoptosis and manifest as brightly-stained, small and ‘condensed’ nuclei.

The test system of series [8] is HT29, HCT116, HepG2 and PLC/PRF/5. The note with it: high doses of 10 or 20 μM; cited from earlier work.
The subject of series [9] is hiPSC-CMs. Description: In vitro hiPSC-CM cardiotoxicity model, overall. The class given is cell-based, human. Conditions: 0.1 μM and 0.5 μM. The source says: Importantly, these changes persisted and worsened after the withdrawal of this drug.
Human iPSC-CMs were exposed to remdesivir under normal and hypoxic conditions for three days. There is a paucity of data which directly correlates oxygen saturation in vivo with oxygen concentration in vitro. […] Human iPSC-CMs exposed to 2.5% 02 were viable, beat and were morphologically indistinguishable from hiPSC-CMs cultured under normoxic (20% 02) conditions.
Importantly, these abnormalities persisted after cessation of treatment, culminating in increased cell death.

In series [10] the test system is hiPSC-CMs. The source holds these as a separate data set.
Series [11] deals with hiPSC-CMs. In words: Mitochondrial mass, mitotracker dye (MTDR) intensity. The series is classed as cell-based, human. The note with it: 0.1-12.5 μM, 3 days, normoxic and hypoxic. On the procedure:
as §1
The first consisted of densely organised, elongated mitochondrial networks spread throughout the cytoplasm and this is considered to represent a healthy balance of fission and fusion. The second had punctate, fragmented mitochondria consistent with increased fission.

Series [12] deals with hiPSC-CMs. In words: Mitochondrial membrane potential (Δψm), TMRE. The series is classed as cell-based, human. Conditions: 3 days, treated vs control. The method, then:
Δψm was measured using the tetramethylrhodamine, ethyl ester (TMRE), a potentiometric dye whose fluorescent intensity is proportional to the mitochondrial potential. CMs were plated into Matrigel-coated surfaces in RPMI/B27 medium. Cells were incubated with TMRE (25 nM; Thermo Fisher Scientific) for 30 min at 37° C., after which they were washed with DPBS and intensity of fluorescence was measured using the Synergy HTX plate-reader (Biotek, Winooski, Vt.) with excitation and emission wavelengths of 540 nm and 590 nm.

For series [13], the system named is hiPSC-CMs. The note with it: human.
For series [14], the system named is hiPSC-CMs. This is another data set of the same source.
Setting [15] is: co-treatment with 12.5 μM remdesivir.

“Also recorded” adds a separate entry of the source. Like-named read-outs stand apart in the source and are kept apart here.

Chain of human mitochondrial RNA polymerase (O00411 42-1230): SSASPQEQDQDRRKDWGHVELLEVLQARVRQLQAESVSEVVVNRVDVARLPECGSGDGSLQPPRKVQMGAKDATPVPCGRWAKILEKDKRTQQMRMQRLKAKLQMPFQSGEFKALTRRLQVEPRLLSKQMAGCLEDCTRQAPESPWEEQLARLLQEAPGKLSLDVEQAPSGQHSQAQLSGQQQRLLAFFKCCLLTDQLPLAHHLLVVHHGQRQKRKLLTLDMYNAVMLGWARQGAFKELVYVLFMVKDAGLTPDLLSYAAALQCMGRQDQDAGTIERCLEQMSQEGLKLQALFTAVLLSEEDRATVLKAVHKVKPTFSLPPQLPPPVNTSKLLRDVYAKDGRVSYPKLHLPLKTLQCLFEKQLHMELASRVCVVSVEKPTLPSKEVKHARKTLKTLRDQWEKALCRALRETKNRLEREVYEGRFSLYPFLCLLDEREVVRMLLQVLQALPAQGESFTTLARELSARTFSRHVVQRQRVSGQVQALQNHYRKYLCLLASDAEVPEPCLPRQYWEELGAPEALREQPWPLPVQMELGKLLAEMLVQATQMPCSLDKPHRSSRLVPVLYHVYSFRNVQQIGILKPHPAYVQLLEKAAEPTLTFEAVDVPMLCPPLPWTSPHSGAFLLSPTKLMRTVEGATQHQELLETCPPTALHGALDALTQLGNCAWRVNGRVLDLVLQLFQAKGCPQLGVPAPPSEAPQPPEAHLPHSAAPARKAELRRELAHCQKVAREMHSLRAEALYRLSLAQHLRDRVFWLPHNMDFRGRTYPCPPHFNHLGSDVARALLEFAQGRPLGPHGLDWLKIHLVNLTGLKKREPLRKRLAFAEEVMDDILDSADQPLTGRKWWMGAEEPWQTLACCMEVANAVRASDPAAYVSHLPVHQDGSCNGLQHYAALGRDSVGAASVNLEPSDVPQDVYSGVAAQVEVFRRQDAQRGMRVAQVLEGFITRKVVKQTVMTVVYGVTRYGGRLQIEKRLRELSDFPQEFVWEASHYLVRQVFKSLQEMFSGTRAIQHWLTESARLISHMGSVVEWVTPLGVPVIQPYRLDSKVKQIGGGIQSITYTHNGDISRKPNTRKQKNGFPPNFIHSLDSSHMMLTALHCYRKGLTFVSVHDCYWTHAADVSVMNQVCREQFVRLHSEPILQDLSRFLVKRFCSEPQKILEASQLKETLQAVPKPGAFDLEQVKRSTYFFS

Regarding β-D-N4-hydroxycytidine, in the series on hiPSC-CMs [1], the “mitochondrial morphology (MTDR dye)” value is reported as “punctate (arrowhead) or perinuclear (arrow) mitochondria” and the “proportion of cells with healthy elongated mitochondria” value is listed as “reduced”.
For the molecule `COc1nc(N)nc2c1ncn2[C@@H]1O[C@H](COP(=O)(N[C@@H](C)C(=O)OCC(C)(C)C)Oc2cccc3ccccc23)[C@@H](O)[C@@]1(C)O` (some centres unmarked) [BMS-986094], in the series with hiPSC-CMs [1], the “mitochondrial morphology (MTDR dye)” value is listed as “punctate (arrowhead) or perinuclear (arrow) mitochondria” and the “proportion of cells with healthy elongated mitochondria” value is listed as “reduced”.
Regarding `N#C[C@@]1(c2ccc3c(N)ncnn23)O[C@H](COP(=O)(O)OP(=O)(O)OP(=O)(O)O)[C@@H](O)[C@H]1O` [remdesivir-triphosphate], in series [2], the “selectivity value (discrimination against the analogue)” value was approximately 500 fold.
With `CCC(CC)COC(=O)[C@H](C)N[P@](=O)(OC[C@H]1O[C@@](C#N)(c2ccc3c(N)ncnn23)[C@H](O)[C@@H]1O)Oc1ccccc1` [remdesivir], the peak plasma concentration in series [3] (day 1 (200 mg)) is 5.4 µg/mL; in series [3] (day 5), 2.6 µg/mL. In addition, the Cmax was 8.9 µM in series [3] (day 1 (200 mg)) and 4.3 µM in series [3] (day 5). In addition, the sarcomeric arrangement entry is “induced the thinning and truncation of myofibrils” in the series on hiPSC-CMs [4] (0.5 μM, 3 days, hypoxia); “disorganised sarcomeric arrangement” in the series on hiPSC-CMs [4] (2.5 μM and 12.5 μM, 3 days treatment + 3 days recovery); “did not have any noticeable effect” in the series with hiPSC-CMs [4] (0.1 and 0.5 μM, 3 days, normoxic); “greatly disorganised myofibrils” with hiPSC-CMs [4] (2.5 and 12.5 μM, 3 days, normoxic and hypoxic). For the same molecule, the QT intervals entry in the series on hPSC-CMs is “prolong QT intervals”. Moreover, in series [5] (WHO Solidarity trial, comparator 0.4%), the “rate of cardiac death” value is 0.3%. The serious atrial fibrillation in series [5] (one clinical study, placebo 0.2%) is on record as 0.9%. For the same molecule, in [5] (one clinical study, placebo 1.4%), the “risk of cardiac arrest” value is listed as 1.9%. Further, the “mitochondrial morphology, treated vs control” value in the series with hiPSC-CMs [1] (0.5 μM, 3 days treatment + 3 days recovery) is reported as “no significant difference”. In addition, the “proportion of cells with punctate, fragmented mitochondria” value in the series with hiPSC-CMs [1] (0.5 μM, normoxic) turned out to be 44.4±7.1%; in the series on hiPSC-CMs [1] (2.5 μM, normoxic) it was 57.3±7.2%; in the series on hiPSC-CMs [1] (12.5 μM, normoxic), 64.4±9.5%. The “proportion of cells with punctate mitochondria” value stood at 66.1±1.1% with hiPSC-CMs [1] (2.5 μM) and 65.5±6.6% with hiPSC-CMs [1] (12.5 μM). The elongated mitochondria with hiPSC-CMs [1] (2.5 μM) was 19.7±2.5%; in the series on hiPSC-CMs [1] (12.5 μM), 4.6±2.1%. The “proportion of punctate mitochondria” value stood at 64.4±4.1% with hiPSC-CMs [1] (2.5 μM) and 58.9±8% with hiPSC-CMs [1] (12.5 μM). The “proportion of elongated mitochondria” value in the series with hiPSC-CMs [1] (2.5 μM) turned out to be 18.7±3.0%; in the series with hiPSC-CMs [1] (12.5 μM), 17.8±4.2%. In addition, the “proportion of cells with perinuclear mitochondria” value in the series on hiPSC-CMs [1] (12.5 μM, 3 days treatment + 3 days recovery (follows the hypoxic data), control 6.5±1.5%) stood at 29.9±5.7%. Also, the perinuclear mitochondria entry in the series on hiPSC-CMs [1] (3 days treatment + 3 days recovery (FIG. 4C)) is recorded as “enriched”. For the same molecule, the “proportion of cells with healthy elongated mitochondria” value in the series on hiPSC-CMs [1] is on record as “reduced”. Also, the “ATP6 mRNA expression” value in series [6] was “dose-dependently and significantly reduced”. Moreover, the “COX6A2 mRNA expression” value in [6] was “dose-dependently and significantly reduced”. Moreover, in series [6], the “ND1 mRNA expression” value was “dose-dependently and significantly reduced”. Further, in series [6], the “ND5 mRNA expression” value was “dose-dependently and significantly reduced”. Also, the “proportion of condensed nuclei” value with hiPSC-CMs [7] (2.5 μM and 12.5 μM, three days after treatment (recovery)) is given as “dose dependent increase”. The cell number result in the series with hiPSC-CMs [7] (3 days, all samples) is given as “No significant difference”. For the same molecule, the “number / proportion of cells with condensed nuclei” value with hiPSC-CMs [7] (immediately after 3 days of treatment) was “did not reveal any significant increase; also recorded: no statistically significant difference”. Also, the mitochondrial toxicity entry in series [8] was “demonstrated”. Moreover, the persistent functional alterations entry in the series with hiPSC-CMs [9] was “did not induce persistent functional alterations”. In addition, the “effect on redox potential” value with hiPSC-CMs [10] (0.1 μM and 0.5 μM, 3 days, normoxic and hypoxic) is listed as “negligible effects”. Also, the “decrease of redox potential” value is listed as 41.0±8.7% with hiPSC-CMs [10] (2.5 μM, 3 days hypoxic treatment + 3 days recovery without drug); 54.6±8.5% in the series on hiPSC-CMs [10] (12.5 μM, 3 days hypoxic treatment + 3 days recovery without drug); 44.1±8.1% with hiPSC-CMs [10] (12.5 μM, 3 days normoxic treatment + 3 days recovery without drug). Moreover, the “decrease of redox activity” value in the series with hiPSC-CMs [10] (2.5 μM, 3 days, hypoxic (2.5% O2)) is on record as 22.5±5.4%; with hiPSC-CMs [10] (2.5 μM, 3 days, normoxic), 21.0±3.9%; in the series with hiPSC-CMs [10] (12.5 μM, 3 days, hypoxic (2.5% O2)), 28.7±6.9%; with hiPSC-CMs [10] (12.5 μM, 3 days, normoxic) it was 35.9±4.0%. For the same molecule, the mitochondrial mass entry with hiPSC-CMs [11] was “not statistically different”. For the same molecule, in the series with hiPSC-CMs [12], the “depolarisation of mitochondrial membrane potential (Δψm)” value was “No statistically significant decrease”. Also, in the series with hiPSC-CMs [13], the spontaneous firing frequency is 0.36±0.07 Hz.
Take `NC(=O)c1ncn([C@@H]2O[C@H](CO)[C@@H](O)[C@H]2O)n1` [ribavirin]: the “mitochondrial morphology (MTDR dye)” value in the series with hiPSC-CMs [1] was “primarily had elongated mitochondria”. Also, the “proportion of cells with healthy elongated mitochondria” value in the series on hiPSC-CMs [14] is “did not have noticeable effect”.
With `COc1cc(-n2c(=S)[nH]c3ccccc3c2=O)c(Cl)cc1Cl` [mdivi-1], the “sarcomeres (MLC2V-eGFP)” value in the series with hiPSC-CMs [4] (MD 15 mM co-treatment vs remdesivir alone (FIG. 5D)) is recorded as “more striated sarcomeres”. Also, the sarcomere arrangement result in the series with hiPSC-CMs [4] (co-treatment with 2.5 μM and 12.5 μM remdesivir) is on record as “improved the sarcomere arrangement”. For the same molecule, the “proportion of cells with elongated mitochondria” value in the series with hiPSC-CMs [1] (MD 15 mM, (FIG. 5B)) is “increased the proportion of cells with elongated mitochondria”. Moreover, the “formation of elongated mitochondria vs remdesivir alone” value in the series with hiPSC-CMs [1] (co-treatment with 2.5 μM remdesivir, normoxic) is listed as “significantly promoted the formation of elongated mitochondria”. Moreover, the “protection of mitochondrial morphology” value with hiPSC-CMs [1] (setting [15]) is reported as “could only significantly protect hiPSC-CMs under hypoxic but not normoxic conditions”. In the series on hiPSC-CMs [1] (co-treatment with remdesivir, hypoxia), the “proportion of cells with punctate mitochondria vs remdesivir alone” value was “corresponding decrease”. Besides, the redox potential result with hiPSC-CMs [10] (co-treatment with 2.5 μM remdesivir, normoxic and hypoxic) is “restored redox potential”; with hiPSC-CMs [10] (setting [15]), “did not have noticeable effect”.
